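1) Cells in 96-well plates. 2) Compound, 48 h, 5 concentrations. 3) Linear interpolation between surrounding doses. 4) Unreached endpoint = highest concentration. GI50 is the concentration that inhibits growth by half.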 The source made the active and inactive calls. Rule as the data show it: active = GI50 up to about 1.1 µM and inactive = higher.
Legend:
Test in all cases: NCI anticancer screen, dose series, 48 h
[1] = tested on: LXFL 529
[2] = tested on: DMS-273
[3] = tested on: SW-620
[4] = tested on: A498
[5] = tested on: DMS-114
[6] = tested on: EKVX
[7] = tested on: SN12C
[8] = tested on: HOP-18
[9] = tested on: KM12
[10] = tested on: OVCAR-8
[11] = tested on: OVCAR-3
[12] = tested on: NCI-H522
[13] = tested on: IGROV-1
[14] = tested on: COLO 205
[15] = tested on: HOP-92
[16] = tested on: HCT-15
[17] = tested on: NCI-H460
[18] = tested on: 786-0
[19] = tested on: HCC 2998
[20] = tested on: HOP-62
[21] = tested on: HCT-116
[22] = tested on: NCI-H226
[23] = tested on: SK-MEL-2
[24] = tested on: TK-10
[25] = tested on: ACHN
[26] = tested on: SF-539
[27] = tested on: OVCAR-4
[28] = tested on: SNB-19
[29] = tested on: U-251
[30] = tested on: HL-60
[31] = tested on: SR
[32] = tested on: SK-OV-3
[33] = tested on: LOX IMVI
[34] = tested on: XF498
[35] = tested on: HT-29
[36] = tested on: SF-268
[37] = tested on: SNB-78
[38] = tested on: CCRF-CEM
[39] = tested on: M19-MEL
[40] = tested on: NCI-H23
[41] = tested on: KM-20L2
[42] = tested on: DLD-1
[43] = tested on: MOLT-4
[44] = tested on: UACC-257
[45] = tested on: A549
[46] = tested on: SF-295
[47] = tested on: K562
[48] = tested on: SNB-75
[49] = tested on: UACC-62
[50] = tested on: RXF 631
[51] = tested on: Malme-3M
[52] = tested on: RXF 393
[53] = tested on: SK-MEL-5
[54] = tested on: SK-MEL-28
[55] = tested on: M14
[56] = tested on: CAKI-1
[57] = tested on: OVCAR-5
[58] = tested on: UO-31
[59] = tested on: RPMI-8226

## CCc1ccccc1NC(=O)C(=O)CC(=O)c1sc(Nc2ccccc2)nc1C
[1]
  GI50: > 100 µM (inactive)
[2]
  GI50: > 100 µM (inactive)
[3]
  GI50: > 100 µM (inactive)
[4]
  GI50: > 100 µM (inactive)
[5]
  GI50: > 100 µM (inactive)
[6]
  GI50: 29.4 µM (inactive)
[7]
  GI50: > 100 µM (inactive)
[8]
  GI50: > 100 µM (inactive)
[9]
  GI50: > 100 µM (inactive)
[10]
  GI50: > 100 µM (inactive)
[11]
  GI50: 80.5 µM (inactive)
[12]
  GI50: 73.5 µM (inactive)
[13]
  GI50: > 100 µM (inactive)
[14]
  GI50: > 100 µM (inactive)
[15]
  GI50: > 100 µM (inactive)
[16]
  GI50: > 100 µM
[17]
  GI50: > 100 µM (inactive)
[18]
  GI50: > 100 µM (inactive)
[19]
  GI50: > 100 µM (inactive)
[20]
  GI50: > 100 µM (inactive)
[21]
  GI50: > 100 µM (inactive)
[22]
  GI50: > 100 µM (inactive)
[23]
  GI50: > 100 µM (inactive)
[24]
  GI50: > 100 µM (inactive)
[25]
  GI50: > 100 µM (inactive)
[26]
  GI50: > 100 µM (inactive)
[27]
  GI50: > 100 µM (inactive)
[28]
  GI50: > 100 µM (inactive)
[29]
  GI50: > 100 µM (inactive)
[30]
  GI50: 89.1 µM (inactive)
[31]
  GI50: 99.3 µM (inactive)
[32]
  GI50: > 100 µM (inactive)
[33]
  GI50: > 100 µM (inactive)
[34]
  GI50: > 100 µM (inactive)
[35]
  GI50: > 100 µM (inactive)
[36]
  GI50: > 100 µM (inactive)
[37]
  GI50: > 100 µM (inactive)
[38]
  GI50: 32.1 µM (inactive)
[39]
  GI50: > 100 µM (inactive)
[40]
  GI50: > 100 µM (inactive)
[41]
  GI50: > 100 µM (inactive)
[42]
  GI50: > 100 µM (inactive)
[43]
  GI50: 48.6 µM (inactive)
[44]
  GI50: > 100 µM (inactive)
[45]
  GI50: > 100 µM (inactive)
[46]
  GI50: > 100 µM (inactive)
[47]
  GI50: 97.1 µM (inactive)
[48]
  GI50: 67.9 µM (inactive)
[49]
  GI50: 99.5 µM (inactive)
[50]
  GI50: > 100 µM (inactive)
[51]
  GI50: > 100 µM (inactive)
[52]
  GI50: > 100 µM (inactive)
[53]
  GI50: > 100 µM (inactive)
[54]
  GI50: > 100 µM (inactive)
[55]
  GI50: > 100 µM (inactive)
[56]
  GI50: 85.9 µM (inactive)
[57]
  GI50: > 100 µM (inactive)
[58]
  GI50: > 100 µM (inactive)

## c1ccc2c(CNCCCCCCNCc3cccc4ccccc34)cccc2c1
[1]
  GI50: 1.91 µM (inactive)
[2]
  GI50: 13.6 µM (inactive)
[3]
  GI50: 4.06 µM (inactive)
[4]
  GI50: 18.7 µM (inactive)
[5]
  GI50: 7.45 µM (inactive)
[6]
  GI50: 13.2 µM (inactive)
[7]
  GI50: 12.4 µM (inactive)
[8]
  GI50: 15.5 µM (inactive)
[9]
  GI50: 3.66 µM (inactive)
[10]
  GI50: 14.5 µM (inactive)
[11]
  GI50: 16.4 µM (inactive)
[12]
  GI50: 2.32 µM (inactive)
[13]
  GI50: 16.2 µM (inactive)
[14]
  GI50: 1.66 µM (inactive)
[15]
  GI50: 6.14 µM (inactive)
[16]
  GI50: 6.75 µM
[17]
  GI50: 1.81 µM (inactive)
[18]
  GI50: 13 µM (inactive)
[20]
  GI50: 16.1 µM (inactive)
[21]
  GI50: 1.99 µM (inactive)
[22]
  GI50: 17.4 µM (inactive)
[23]
  GI50: 1.65 µM (inactive)
[24]
  GI50: 12.6 µM (inactive)
[25]
  GI50: 15.6 µM (inactive)
[26]
  GI50: 1.82 µM (inactive)
[27]
  GI50: 14.7 µM (inactive)
[29]
  GI50: 10.7 µM (inactive)
[30]
  GI50: 1.46 µM (inactive)
[31]
  GI50: 2.14 µM (inactive)
[32]
  GI50: 17.5 µM (inactive)
[33]
  GI50: 1.87 µM (inactive)
[34]
  GI50: 2.42 µM (inactive)
[35]
  GI50: 2.23 µM (inactive)
[36]
  GI50: 11.9 µM (inactive)
[37]
  GI50: 9.44 µM (inactive)
[38]
  GI50: 3.06 µM (inactive)
[39]
  GI50: 4.2 µM (inactive)
[40]
  GI50: 16.4 µM (inactive)
[41]
  GI50: 2.61 µM (inactive)
[42]
  GI50: 3.78 µM (inactive)
[43]
  GI50: 3.04 µM (inactive)
[44]
  GI50: 1.74 µM (inactive)
[45]
  GI50: 17.8 µM (inactive)
[46]
  GI50: 12.2 µM (inactive)
[47]
  GI50: 1.56 µM (inactive)
[48]
  GI50: 2.31 µM (inactive)
[49]
  GI50: 9.73 µM (inactive)
[59]
  GI50: 2.27 µM (inactive)
[50]
  GI50: 3.74 µM (inactive)
[51]
  GI50: 1.95 µM (inactive)
[52]
  GI50: 2.19 µM (inactive)
[53]
  GI50: 7.24 µM (inactive)
[54]
  GI50: 1.85 µM (inactive)
[55]
  GI50: 1.79 µM (inactive)
[56]
  GI50: 7.38 µM (inactive)
[57]
  GI50: 15.9 µM (inactive)
[58]
  GI50: 11.3 µM (inactive)

From ChEMBL document CHEMBL1201862, “PubChem BioAssay data set” (2004)
